Experimental findings from a melting point compilation (Tetko et al.; mined from patent text by program, amines drawn as free bases though some values may be those of a salt) are described below.

A word on the melting point: it is the temperature of the solid-liquid transition.

Each structure is given as a SMILES string.

`CC1(C)C(=O)Nc2cc3c(cc21)OC(O)N3` (stereo not drawn): the melting point fell in the range of 297 to 299 °C.

Regarding `CCNC(=O)c1c(Br)csc1[Si](C)(C)C`, the melting point was 93 to 96 °C.

The molecule `N#Cc1ccc(N2CCCC2)c2ccccc12` gave a melting point of 109 to 110 °C.

The molecule `O=[N+]([O-])c1ccc(Oc2ccccc2Oc2ccc(Cl)cn2)nc1` displayed a melting point of 82 to 84 °C.

The molecule `CSc1cc2c(cc1C(F)(F)F)N(C(=O)Nc1cccc(C(=O)Nc3ccncc3)c1)CC2` came in with a melting point above 200 °C.

For the molecule `CN1CC(c2ccc(S(C)(=O)=O)cc2)=C(c2ccc(Br)cc2)C1=O`, the melting point was in the range of 161 to 163 °C.

`c1ccc2c(c1)C(=NOCCN1CCCCC1)c1ccccc1C1CC21` (stereo not drawn) came in with a melting point of 75 to 76 °C.

For the molecule `O=C(O)c1cccc(C(=O)C=Cc2cccc(C=Cc3ccc4ccccc4n3)c2)c1O`, the melting point lay within 237 to 240 °C.

`CCC(C#N)C(Br)c1ccc(Br)cc1` (stereo not drawn) displayed a melting point of 87 °C.

With `COc1ccc(C#Cc2cc(OC)c(OC)cc2C=O)cc1OC`, the melting point is 148 to 149 °C.

Take `COc1cc(OC)cc(C(=O)NC(NC(=NC#N)Nc2ccc(Cl)nc2)C(C)(Cl)Cl)c1` (stereo not drawn): the melting point fell in the range of 193 to 195 °C.

`c1ccc(COc2ccc(C(c3ccc(OCc4ccccc4)cc3)n3cncn3)cc2)cc1` displayed a melting point of 134 to 137 °C.

`Cc1cccc(-c2cc(C(=O)O)n(C)n2)c1` yielded a melting point of 150 to 153 °C.

In turn, `N#CC(NC(=O)c1ccccc1)n1cccn1` (stereo not drawn) gave a melting point of 169 to 174 °C.

`O=C(CCCN1CCOCC1)c1ccc2c(c1)Cc1cc(C(=O)CCCN3CCOCC3)ccc1O2` registered a melting point of 110 to 112 °C.

In the case of `Cn1cc(Br)cc(Nc2ccc(C3CNC3)cn2)c1=O`, the melting point is 123 to 124 °C.

Molecule `Fc1ccc(-c2nc(-c3ccccc3)sc2-c2ccncc2)cc1` displayed a melting point of 135 to 137 °C.

Turning to `CCc1cccc(CC(=O)O)c1OCCCc1cn(Cc2nc(-c3ccccc3)oc2C)nc1C(C)C`, the melting point lay within 94 to 95 °C.

In turn, `Cc1ccc(C)c(Oc2noc(=O)n2S(=O)(=O)N(C)C)c1` yielded a melting point of 101 to 103 °C.

Molecule `CCOC(C)=C(C#N)C(=O)c1ccc(F)cc1` showed a melting point of 77 °C.

`COc1ccc(S(=O)(=O)NCCc2ccc(CC(=O)O)cc2)cc1`: the melting point was 160 to 162 °C.

On to `CC(C)(CO)Cc1ccc(CC(C)(C)CO)cc1`, for which the melting point is 104 to 105 °C.

Consider `CC(C)(C)c1cnc(-c2nn(-c3ccc(F)cc3F)c3c2C2CCC3C2)o1` (stereo not drawn), for which the melting point lay in the range of 58 to 60 °C.

`CCc1nc2cc(C(N)=O)c(Cl)cc2n1-c1ccc(CCOC(=O)NS(=O)(=O)c2ccc(C)cc2)cc1` registered a melting point of 170 to 175 °C.

`CNCCCNC(=O)c1[nH]c(-c2ccccc2)c2cc(Cl)ccc12` registered a melting point of 162 to 164 °C.

Consider `CSc1nc(NCc2ccc(-c3ccccc3)cc2)n2ncc(C(C)C)c2n1`, for which the melting point fell in the range of 134 to 135 °C.

In the case of `O=C1c2ccccc2C(=O)c2sc(-c3ccc(F)cc3)nc21`, the melting point was above 260 °C.

On to `CC(C)(C)c1cc(-c2csc(SCC(=O)O)n2)cc(C(C)(C)C)c1O`, for which the melting point fell in the range of 158 to 159 °C.

`COc1ccc(-c2cc3cc(OC)cc(C(C)(C)C#N)c3o2)cc1`: the melting point lay within 146 to 148 °C.

In the case of `CC(C)C(=O)N1C2=NC(C)(C)N(C)C(=O)N2c2ccccc21`, the melting point is 99 to 102 °C.

On to `Cn1c(=O)[nH]c2cc(F)ccc21`, for which the melting point came to 207 °C.

Regarding `O=C(c1ccccc1O)c1ccc(O)c(Cl)c1Cl`, the melting point lay in the range of 200 to 202 °C.

`CCOC(=O)c1cccn1CCN1CCC(=C2c3ccn(C)c3CCn3ccnc32)CC1` had a melting point of 162 °C.

As for `Cc1nc2cc(NC(=O)c3cc4cc(F)ncc4n3Cc3cccc(F)c3)ccc2n1C`, the melting point is 245 to 247 °C.

In turn, `CCCCc1nc(SCC)c2ccccc2c1Cc1ccc(C(=O)O)cc1` registered a melting point of 150 °C.

`C=CCNc1nc(NCCOC)nc2c(C)csc12`: the melting point is 87 to 88 °C.

The molecule `CCOCc1cc2cc(Br)ccc2oc1=Nc1ccc(C)cc1` had a melting point of 116 to 117 °C.

Consider `CNS(=O)(=O)c1ccccc1Nc1nc(Nc2ccc3c(c2)COC[C@@H]2CCCN32)ncc1Cl`, for which the melting point lay in the range of 187 to 188 °C.

Molecule `O=C(NCC12CC3CC(CC(C3)C1)C2)c1c(Cl)ccc2nc(N3CCC(O)(C(=O)O)CC3)ccc12` returned a melting point of 200 to 204 °C.

Consider `CC(C)(C)C(=O)OCc1cc2c(cc1C#Cc1ccccc1)NC(=O)CC(c1cccc(C#N)c1)=N2`, for which the melting point was determined as 218 °C.

`O=c1c(=NNc2ccccc2)c(=O)n(-c2ccccc2)c2ccccc2n1CCC1C2CC3CC(C2)CC1C3` (stereo not drawn) yielded a melting point of 130 to 131 °C.

For `CC(C)CN1C(=O)C(CC(=O)O)OC(C)(c2ccccc2Cl)c2cc(Cl)ccc21` (stereo not drawn), the melting point fell in the range of 153 to 154 °C.

Consider `CN(C(=O)c1nn(-c2ccc(Cl)cc2Cl)c(-c2ccc(Cl)cc2)c1F)N1CCCCC1`, for which the melting point was found to be 184 °C.

As to `CC1(O)CC(=O)OC(C=Cc2cccc(OCc3ccccc3)c2)C1` (stereo not drawn), the melting point was 122 to 124 °C.

Consider `CN(C)C=C1C(=O)N(c2cccc(F)c2)c2ccccc21`, for which the melting point was in the range of 87 to 88.5 °C.

In turn, `CCCOC(Cc1ccc(OCCc2nc(C(C)(C)C)oc2C)c2ccccc12)C(=O)O` (stereo not drawn) had a melting point of 135 to 137 °C.

Molecule `CCCCCCCN(CCCCCSc1nc(-c2ccccc2)c(-c2ccccc2)[nH]1)C(=S)Nc1ccc(F)cc1F` gave a melting point of 116 to 118 °C.

For `CCOC(=O)Oc1cccc(OC)c1Cl`, the melting point lay in the range of 75 to 76 °C.

As to `O=S1(=O)NCN(C2CC2)c2cc(Br)c(C(F)(F)F)cc21`, the melting point lay in the range of 186 to 189 °C.

With `CNC(=O)N(C)c1nnc(SCc2ccccc2)s1`, the melting point was in the range of 139 to 142 °C.

As for `O=C(O)c1cc(Br)ccc1NCCC=C1c2ccccc2CCc2ccccc21`, the melting point lay within 226 to 227 °C.

On to `CN1CC(C)(CCCl)Oc2ncccc2C1=S` (stereo not drawn), for which the melting point is 119 to 121 °C.

Turning to `O=C(Nc1ccc(Cl)cn1)c1oc2ccc(C(=O)N3CCOCC3)cc2c1NC(=O)[C@H]1CC[C@H](N2CCCC2=O)CC1`, the melting point is 253 to 255 °C.

For `NC(=O)c1cc(-c2cccc3cc(Cc4cc(F)cc(Cl)c4)sc23)ccc1F`, the melting point is 169 to 170 °C.

In the case of `Cn1c(=O)nc(-c2ccccc2)c2c3c(sc21)CCCC3`, the melting point lay within 215 to 216 °C.

`CCc1cc(OCCCN(C)Cc2ccc(OC)c(OC)c2)ccc1NC(=O)c1cccc2c(=O)c3cccc(F)c3[nH]c12` yielded a melting point of 146 °C.

In turn, `CC(=NNc1ccccc1)c1ccc(N2CCN(c3c(C)nc(N)nc3N)CC2)cc1` gave a melting point of 239 to 241 °C.

`COc1ccc2c(-c3ccccc3F)csc2c1Cl` displayed a melting point of 136 to 137 °C.

In turn, `CCN(CC)CCNC(=O)c1cc(Cl)c(N)cc1O` registered a melting point of 134 to 136 °C.

For the molecule `COC(=O)c1nc(Cl)c(F)c(N)c1/C=C/[Si](C)(C)C`, the melting point lay in the range of 103 to 105 °C.

Regarding `O=C1CCCc2c1ccc1c2OCO1`, the melting point is 132 to 136 °C.

In the case of `CCOC(=O)c1cnn(-c2ccc(Cl)cc2C(F)(F)F)c1N`, the melting point lay within 114 to 116 °C.

Consider `O=P(O)(O)Cc1ccccc1CP(=O)(O)O`, for which the melting point was above 300 °C.
